The numbers were not newly measured in patent US20060116369A1, “Certain compounds, compositions, and methods” (priority 2004, published 2006), which cites them from elsewhere.

Usually GI50 stands for the concentration that inhibits growth by half.

In this data set the test system is A549 cells. Particulars: data provided by National Cancer Institute, Developmental Therapeutic Program.
`O=c1[nH]cc(F)c(=O)[nH]1` [5-fluorouracil]: the GI50 was 1000 nM. In the case of `COc1cccc2c1C(=O)c1c(O)c3c(c(O)c1C2=O)C[C@@](O)(C(=O)CO)C[C@@H]3O[C@H]1C[C@H](N)[C@H](O)[C@H](C)O1` [doxorubicin], the GI50 is 63 nM.

As to `NC(=O)NO` [hydroxyurea], the GI50 was 500000 nM. As for `CC(=O)O[C@H]1C(=O)[C@@]2(C)[C@H]([C@H](OC(=O)c3ccccc3)[C@]3(O)C[C@H](OC(=O)[C@H](O)[C@@H](NC(=O)c4ccccc4)c4ccccc4)C(C)=C1C3(C)C)[C@]1(OC(C)=O)CO[C@@H]1C[C@@H]2O` [paclitaxel], the GI50 was 4 nM.
